Measurements published in US10358463B2, “Immunomodulators” (BRISTOL-MYERS SQUIBB COMPANY, priority 2016, dated 2019).
Numbered stars: 1 amine (or outer) side, 2 acyl side, 3 side chain; on linkers, the order of the positions; unused ones are H or OH. Bridge positions count the residues as written; N and C are the ends. Square brackets hold non-standard residues; d marks the D form. Peptide text beside a SMILES is read from it. X10 = COc1ccc2c(c1)c(C[C@H](N[*:1])C(=O)[*:2])cn2CC(=O)O; Hyp = O=C(O)[C@@H]1C[C@@H](O)CN1; NMeNle = CCCC[C@H](NC)C(=O)O; NMeA = CN[C@@H](C)C(=O)O; Dab = NCC[C@H](N)C(=O)O; Dap = NC[C@H](N)C(=O)O

Target: T1, PD-1-Ig binding to PD-L1-TVMV-His (PD-L1-His) (Homo sapiens, UniProt Q9NZQ7)
T1 construct: hPDL1 (19-239)-TVMV-His; TVMV protease cleavage site (C); made in house; host or cells: HEK293T cells
T1 sequence (Q9NZQ7 with tags, fused parts or gaps): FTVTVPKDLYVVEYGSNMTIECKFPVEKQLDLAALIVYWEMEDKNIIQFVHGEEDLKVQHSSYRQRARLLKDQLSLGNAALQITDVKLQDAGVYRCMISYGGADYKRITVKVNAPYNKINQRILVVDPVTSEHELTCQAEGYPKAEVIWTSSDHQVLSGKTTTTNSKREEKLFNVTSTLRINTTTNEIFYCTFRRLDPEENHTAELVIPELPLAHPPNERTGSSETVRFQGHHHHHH
Assay: PD-1/PD-L1 Homogenous Time-Resolved Fluorescence (HTRF) binding assay
Settings: PD-1-Ig (20 nM)/PD-L1-His (10 nM); range class

SMILES: CCCC[C@H]1C(=O)N(C)[C@@H](CCCC)C(=O)N[C@@H](CC(C)C)C(=O)N[C@H](C(N)=O)CSCC(=O)N[C@@H](Cc2ccc(O)cc2)C(=O)N(C)[C@@H](C)C(=O)N[C@@H](CC(N)=O)C(=O)N2CCC[C@H]2C(=O)N[C@@H](CN)C(=O)N[C@@H](CC(C)C)C(=O)N2C[C@H](O)C[C@H]2C(=O)N[C@@H](Cc2c[nH]c3ccccc23)C(=O)N[C@@H](CCN)C(=O)N[C@@H](Cc2cn(CC(=O)O)c3ccc(OC)cc23)C(=O)N1C [Example 10503] ({CH2CO}-Y[NMeA]NP[Dap]L[Hyp]W[Dab][X10][NMeNle][NMeNle]LC-NH2; thioether N-14)
- IC50: 1 to 9.9 nM
